Measurements from patent publication US8741834B2, “Dipeptoid prodrugs and the use thereof” (Bayer Intellectual Property GmbH, priority 2008, dated 2014).
Counter-ions that a name gives are not always drawn.

Assays:
[1] = Stability in buffer at various pH values; assay type: physicochemical
Procedure: 0.3 mg of the test substance is weighed into a 2 ml HPLC vial and 0.5 ml of acetonitrile or acetonitrile/DMSO (9:1) is added. The substance is dissolved by putting the sample vessel in an ultrasonic bath for about 10 seconds. Then 0.5 ml of the respective buffer solution is added, and the sample is again treated in the ultrasonic bath.
pH 2: 0.03 mol of citric acid, 0.061 mol of sodium chloride and 0.0082 mol of hydrochoric acid ad 1 liter of water;
pH 4: 1 liter of Millipore water is adjusted to pH 4.0 with 1 N hydrochloric acid;
pH 5: 0.096 mol of citric acid and 0.2 mol of sodium hydroxide ad 1 liter of water;
pH 6: 0.06 mol of citric acid and 0.16 mol of sodium hydroxide ad 1 liter of water;
pH 7.4: 90.0 g of sodium chloride, 13.61 g of potassium dihydrogen phosphate and 83.35 g of 1 N sodium hydroxide solution are made up to 1 liter with water; this solution is then further diluted 1:10 with Millipore water.
pH 8: 0.013 mol of borax and 0.021 mol of hydrochloric acid ad 1 liter of water.
5 μl portions of the test solution are analyzed by HPLC for their content of unchanged test substance, and of active substance (A) formed, every hour over a period of 24 hours at 37° C. The percentage areas of the appropriate peaks are used for quantification.
The ratios of the peak areas (F) at the respective time points in relation to the peak areas at the starting time are shown in Table 2 for representative exemplary embodiments: […]

[2] = Determination of the solubility in 5% strength aqueous dextrose solution; assay type: physicochemical; conditions: saline or isotonic, thermodynamic from solid, room temperature
Procedure: The test substance is suspended in 5% strength aqueous dextrose solution. This suspension is shaken at room temperature for 24 h. After ultracentrifugation at 224 000 g for 30 min, the supernatant is diluted with DMSO and analysed by HPLC. A two-point calibration plot of the test compound in DMSO is used for quantification.
Agilent 1100 with DAD (G1315A), quat. Pump (G1311A), autosampler CTC HTS PAL, degasser (G1322A) and column thermostat (G1316A); column: Phenomenex Gemini C18, 5 μm, 50 mm×2 mm; temperature: 40° C.; eluent A: water/phosphoric acid pH 2, eluent B: acetonitrile; flow rate: 0.7 ml/min; gradient: 0-0.5 min 85% A, 15% B; ramp 0.5-3 min 10% A, 90% B; 3-3.5 min 10% A, 90% B; ramp 3.5-4 min 85% A, 15% B; 4-5 min 85% A, 15% B.
Agilent 1100 with DAD (G1315A), quat. pump (G1311A), autosampler CTC HTS PAL, degasser (G1322A) and column thermostat (G1316A); column: VDSoptilab Kromasil 100 C18, 3.5 μm, 60 mm×2.1 mm; temperature: 30° C.; eluent A: water+5 ml of perchloric acid/liter, eluent B: acetonitrile; flow rate: 0.75 ml/min; gradient: 0-0.5 min 98% A, 2% B; ramp 0.5-4.5 min 10% A, 90% B; 4.5-6 min 10% A, 90% B; ramp 6.5-6.7 min 98% A, 2% B; 6.7-7.5 min 98% A, 2% B.

| SMILES | % test substance after 4 h [F(t = 4 h) × 100/F(t = 0 h)] ([1]; pH 4, 37° C.) [%] | % test substance after 24 h [F(t = 24 h) × 100/F(t = 0 h)] ([1]; pH 4, 37° C.) [%] | % test substance after 4 h [F(t = 4 h) × 100/F(t = 0 h)] ([1]; pH 7.4, 37° C.) [%] | % test substance after 24 h [F(t = 24 h) × 100/F(t = 0 h)] ([1]; pH 7.4, 37° C.) [%] | solubility thermodynamic at 24 h [2] [µg/mL] | % test substance after 4 h [F(t = 4 h) × 100/F(t = 0 h)] ([1]; pH 5, 37° C.) [%] | % test substance after 24 h [F(t = 24 h) × 100/F(t = 0 h)] ([1]; pH 5, 37° C.) [%] |
| --- | --- | --- | --- | --- | --- | --- | --- |
| C[C@H](NC(=O)C[C@H](N)C(=O)O)C(=O)OC[C@H](COc1ccc(-c2c(C#N)c(N)nc(SCc3coc(-c4ccc(Cl)cc4)n3)c2C#N)cc1)OC(=O)[C@H](C)NC(=O)C[C@H](N)C(=O)O [Example 14, (2S,6S,9S,13S,17S)-2,17-Diamino-9-({4-[2-amino-6-({[2-(4-chlorophenyl)-1,3-oxazol-4-yl]methyl}sulfanyl)-3,5-dicyanopyridin-4-yl]phenoxy}methyl)-6,13-dimethyl-4,7,12,15-tetraoxo-8,11-dioxa-5,14-diazaoctadecane-1,18-dioic acid bis(trifluoroacetic acid) salt] | 96 | 95 | 100 | 91 |  |  |  |
| C[C@H](NC(=O)[C@@H](N)CCCN)C(=O)OC[C@H](COc1ccc(-c2c(C#N)c(N)nc(SCc3coc(-c4ccc(Cl)cc4)n3)c2C#N)cc1)OC(=O)[C@H](C)NC(=O)[C@@H](N)CCCN [Example 4, (2S)-3-{4-[2-Amino-6-({[2-(4-chlorophenyl)-1,3-oxazol-4-yl]methyl}sulfanyl)-3,5-dicyanopyridin-4-yl]phenoxy}propane-1,2-diyl (2S,2′S)-bis(2-{[(2S)-2,5-diaminopentanoyl]amino}propanoate)tetrahydrochloride] |  |  |  |  | 860 |  |  |
| C[C@H](N)C(=O)NCCC(=O)OC[C@H](COc1ccc(-c2c(C#N)c(N)nc(SCc3coc(-c4ccc(Cl)cc4)n3)c2C#N)cc1)OC(=O)CCNC(=O)[C@H](C)N [Example 31, (2S)-3-{4-[2-Amino-6-({[2-(4-chlorophenyl)-1,3-oxazol-4-yl]methyl}sulfanyl)-3,5-dicyanopyridin-4-yl]phenoxy}propane-1,2-diyl bis(3-{[(2S)-2-aminopropanoyl)amino}propanoate)dihydrochloride] |  |  |  |  | 220 |  |  |
| C[C@H](NC(=O)[C@@H](N)CCCCN)C(=O)OC[C@@H](COc1ccc(-c2c(C#N)c(N)nc(SCc3coc(-c4ccc(Cl)cc4)n3)c2C#N)cc1)OC(=O)[C@H](C)NC(=O)[C@@H](N)CCCCN [Example 34, (2R)-3-{4-[2-Amino-6-({[2-(4-chlorophenyl)-1,3-oxazol-4-yl]methyl}sulfanyl)-3,5-dicyanopyridin-4-yl]phenoxy}propane-1,2-diyl(2S,2′S)-bis(2-{[(2S)-2,6-diaminohexanoyl]amino}propanoate)tetrahydrochloride] | 100 | 99 | 0 | 0 |  |  |  |
| C[C@@H](O)[C@H](N)C(=O)NCCC(=O)OC[C@H](COc1ccc(-c2c(C#N)c(N)nc(SCc3coc(-c4ccc(Cl)cc4)n3)c2C#N)cc1)OC(=O)CCNC(=O)[C@@H](N)[C@@H](C)O [Example 39, (2S)-3-{4-[2-Amino-6-({[2-(4-chlorophenyl)-1,3-oxazol-4-yl]methyl}sulfanyl)-3,5-dicyanopyridin-4-yl]phenoxy}propane-1,2-diyl bis(3-{[(2S,3R)-2-amino-3-hydroxybutanoyl]amino}propanoate)bis(trifluoroacetic acid) salt] |  |  |  |  | 490 |  |  |
| CC(C)[C@H](N)C(=O)N[C@@H](C)C(=O)OC[C@H](COc1ccc(-c2c(C#N)c(N)nc(SCc3coc(-c4ccc(Cl)cc4)n3)c2C#N)cc1)OC(=O)[C@H](C)NC(=O)[C@@H](N)C(C)C [Example 26, (2S)-3-{4-[2-Amino-6-({[2-(4-chlorophenyl)-1,3-oxazol-4-yl]methyl}sulfanyl)-3,5-dicyanopyridin-4-yl]phenoxy}propane-1,2-diyl (2S,2′S)-bis(2-{[(2S)-2-amino-3-methylbutanoyl]amino}propanoate)dihydrochloride] | 100 | 99 | 84 | 34 |  | 97 | 92 |
| C[C@@H](O)[C@H](NC(=O)CN)C(=O)OC[C@H](COc1ccc(-c2c(C#N)c(N)nc(SCc3coc(-c4ccc(Cl)cc4)n3)c2C#N)cc1)OC(=O)[C@@H](NC(=O)CN)[C@@H](C)O [Example 36, (2S)-3-{4-[2-Amino-6-({[2-(4-chlorophenyl)-1,3-oxazol-4-yl]methyl}sulfanyl)-3,5-dicyanopyridin-4-yl]phenoxy}propane-1,2-diyl (2S,3R,2′S,3′R)-bis{2-[(aminoacetyl)amino]-3-hydroxybutanoate}bis(trifluoroacetic acid) salt] |  |  |  |  | 700 |  |  |
| C[C@H](N)C(=O)N[C@H](C(=O)OC[C@H](COc1ccc(-c2c(C#N)c(N)nc(SCc3coc(-c4ccc(Cl)cc4)n3)c2C#N)cc1)OC(=O)[C@@H](NC(=O)[C@H](C)N)[C@@H](C)O)[C@@H](C)O [Example 38, (2S)-3-{4-[2-Amino-6-({[2-(4-chlorophenyl)-1,3-oxazol-4-yl]methyl}sulfanyl)-3,5-dicyanopyridin-4-yl]phenoxy}propane-1,2-diyl (2S,3R,2′S,3′R)-bis(2-{[(2S)-2-aminopropanoyl]amino}-3-hydroxybutanoate)bis(trifluoroacetic acid) salt] |  |  |  |  | 750 |  |  |
| C[C@H](NC(=O)[C@@H](N)CCN)C(=O)OC[C@H](COc1ccc(-c2c(C#N)c(N)nc(SCc3coc(-c4ccc(Cl)cc4)n3)c2C#N)cc1)OC(=O)[C@H](C)NC(=O)[C@@H](N)CCN [Example 3, (2S)-3-{4-[2-Amino-6-({[2-(4-chlorophenyl)-1,3-oxazol-4-yl]methyl}sulfanyl)-3,5-dicyanopyridin-4-yl]phenoxy}propane-1,2-diyl (2S,2′S)-bis(2-{[(2S)-2,4-diaminobutanoyl]amino}propanoate)tetrahydrochloride] |  |  |  |  | 590 |  |  |
| C[C@H](NC(=O)[C@@H](N)CCCCN)C(=O)OC[C@H](COc1ccc(-c2c(C#N)c(N)nc(SCc3coc(-c4ccc(Cl)cc4)n3)c2C#N)cc1)OC(=O)[C@H](C)NC(=O)[C@@H](N)CCCCN [Example 35, (2S)-3-{4-[2-Amino-6-({[2-(4-chlorophenyl)-1,3-oxazol-4-yl]methyl}sulfanyl)-3,5-dicyanopyridin-4-yl]phenoxy}propane-1,2-diyl(2S,2′S)-bis(2-{[(2S)-2,6-diaminohexanoyl)amino}propanoate)tetrahydrochloride] | 98 | 94 | 2 | 0 | 610 |  |  |
| CC(C)[C@H](NC(=O)[C@H](C)N)C(=O)OC[C@H](COc1ccc(-c2c(C#N)c(N)nc(SCc3coc(-c4ccc(Cl)cc4)n3)c2C#N)cc1)OC(=O)[C@@H](NC(=O)[C@H](C)N)C(C)C [Example 28, (2S)-3-{4-[2-Amino-6-({[2-(4-chlorophenyl)-1,3-oxazol-4-yl]methyl}sulfanyl)-3,5-dicyanopyridin-4-yl]phenoxy}propane-1,2-diyl(2S,2′S)-bis(2-{[(2S)-2-aminopropanoyl]amino}-3-methylbutanoate)dihydrochloride] | 100 | 99 | 99 | 88 |  |  |  |
